Results taken from the supplement of paper PMC10307832.

Key:
Test in all cases: relative viability (nuclei count vs DMSO), 5 days (fraction); higher = more cells survive
[1] = compound: CS(=O)(=O)c1ccc(-c2cnc(N)c(C(=O)Nc3ccccc3)n2)cc1 [VE-821] + C[C@]1(O)C[C@@H](c2nc(-c3ccc4ccc(-c5ccccc5)nc4c3)c3c(N)nccn32)C1 [Linsitinib] (partner 1 µM)
Outline: (§1)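 Each reported value is a median over duplicate plates. It expresses relative viability: treated-well nuclei count divided by vehicle-well nuclei count. Lung cancer cell lines in 1536-well plates were dosed by pin tool a day after seeding, alone with one drug or with a fixed anchor-drug dose plus five library-drug doses (not always all listed) in √10 steps, and nuclei were counted after 5 days.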

[2] = compound: CS(=O)(=O)c1ccc(-c2cnc(N)c(C(=O)Nc3ccccc3)n2)cc1 [VE-821] + CC(C)C[C@H](NC(=O)[C@H](Cc1ccccc1)NC(=O)c1cnccn1)B(O)O [Bortezomib] (partner 0.002 µM)
Outline: as §1

[3] = compound: N#CC[C@H](C1CCCC1)n1cc(-c2ncnc3[nH]ccc23)cn1 [Ruxolitinib] + Cc1nc(Nc2ncc(C(=O)Nc3c(C)cccc3Cl)s2)cc(N2CCN(CCO)CC2)n1 [Dasatinib] (partner 0.075 µM)
Outline: as §1

[4] = compound: CS(=O)(=O)c1ccc(-c2cnc(N)c(C(=O)Nc3ccccc3)n2)cc1 [VE-821] + N=C(N)NC(=N)NCCc1ccccc1 [Phenformin] (partner 250 µM)
Outline: as §1

Cell Line | relative viability ([1]; first compound 0.08 µM) | relative viability ([1]; first compound 0.253 µM) | relative viability ([1]; first compound 0.8 µM) | relative viability ([1]; first compound 2.53 µM) | relative viability ([1]; first compound 8 µM) | relative viability ([2]; first compound 0.08 µM) | relative viability ([2]; first compound 0.253 µM) | relative viability ([2]; first compound 0.8 µM) | relative viability ([2]; first compound 2.53 µM) | relative viability ([2]; first compound 8 µM) | relative viability ([3]; first compound 0.08 µM) | relative viability ([3]; first compound 0.253 µM) | relative viability ([3]; first compound 0.8 µM) | relative viability ([3]; first compound 2.53 µM) | relative viability ([3]; first compound 8 µM) | relative viability ([4]; first compound 0.08 µM) | relative viability ([4]; first compound 0.253 µM) | relative viability ([4]; first compound 0.8 µM) | relative viability ([4]; first compound 2.53 µM) | relative viability ([4]; first compound 8 µM)
NCI-H1993 | 0.729 | 0.668 | 0.764 | 0.697 | 0.595 | 1.25 | 0.869 | 0.967 | 1.16 | 0.812 | 0.532 | 0.523 | 0.579 | 0.488 | 0.583 | 0.457 | 0.439 | 0.527 | 0.482 | 0.524
A-427 | 1.18 | 1.12 | 1.06 | 1.08 | 0.894 | 0.964 | 0.937 | 0.906 | 0.93 | 0.695 | 0.74 | 0.751 | 0.66 | 0.441 | 0.463 | 0.341 | 0.319 | 0.293 | 0.365 | 0.225
NCI-H2347 | 1.02 | 1.05 | 1.07 | 1.21 | 1.06 | 1.07 | 0.881 | 0.729 | 0.876 | 0.878 | 0.295 | 0.341 | 0.297 | 0.29 | 0.333 | 0.476 | 0.295 | 0.347 | 0.495 | 0.358
BEN | 0.967 | 0.871 | 0.793 | 0.911 | 0.753 | 0.872 | 0.759 | 0.992 | 1.03 | 0.712 | 0.319 | 0.311 | 0.377 | 0.292 | 0.335 | 0.284 | 0.281 | 0.283 | 0.257 | 0.249
NCI-H23 | 0.56 | 0.639 | 0.485 | 0.706 | 0.37 | 1 | 0.991 | 1.14 | 0.829 | 0.323 | 0.536 | 0.679 | 0.8 | 0.597 | 0.517 | 0.812 | 0.743 | 0.785 | 0.844 | 0.479
LU99A | 0.496 | 0.535 | 0.545 | 0.53 | 0.278 | 1.11 | 1.23 | 1.16 | 1.08 | 0.514 | 0.628 | 0.607 | 0.514 | 0.429 | 0.38 | 0.947 | 0.896 | 0.807 | 0.873 | 0.478
ABC-1 | 0.819 | 0.699 | 0.567 | 0.798 | 0.423 | 0.333 | 0.335 | 0.288 | 0.368 | 0.307 |  | 0.53 | 0.547 | 0.64 | 0.45 | 0.308 | 0.26 | 0.203 | 0.244 | 0.211
SW 1573 | 0.912 | 0.859 | 0.789 | 0.874 | 0.874 | 1.23 | 1.05 | 1.15 | 1.15 | 1.01 | 0.742 | 0.459 | 0.72 | 0.357 | 0.237 | 0.405 | 0.293 | 0.358 | 0.456 | 0.162
NCI-H2009 | 1.23 | 1.19 | 1.12 | 1.22 | 1.23 | 0.952 | 0.967 | 0.993 | 1.07 | 0.814 | 0.354 | 0.263 | 0.273 | 0.129 | 0.176 | 0.507 | 0.471 | 0.498 | 0.461 | 0.36
HCC-15 | 1.01 | 0.816 | 0.954 | 0.961 | 0.889 | 1.22 | 1.02 | 1.02 | 1.13 | 1.1 | 0.661 | 0.492 | 0.675 | 0.439 | 0.286 | 0.625 | 0.473 | 0.506 | 0.526 | 0.438
EPLC-272H | 1.28 | 0.928 | 1.22 | 1.6 | 1.11 | 0.955 | 0.927 | 1.12 | 1.13 | 0.814 | 0.399 | 0.402 | 0.42 | 0.243 | 0.134 | 0.322 | 0.29 | 0.326 | 0.383 | 0.26
NCI-H1792 | 0.55 | 0.711 | 0.438 | 0.553 | 0.421 | 1.25 | 1.05 | 0.938 | 1.01 | 0.947 | 0.664 | 0.664 | 0.675 | 0.541 | 0.466 | 0.332 |  | 0.281 | 0.342 | 0.258
HCC-78 | 0.626 | 0.575 | 0.404 | 0.477 | 0.328 | 0.697 | 0.561 | 0.471 | 0.549 | 0.303 | 0.39 | 0.319 | 0.387 | 0.354 | 0.323 | 0.646 | 0.639 | 0.746 | 0.731 | 0.617
LXF-289 | 0.992 | 0.945 | 1.06 | 1.1 | 1.07 | 1.04 | 1.07 | 1.1 | 1.08 | 1.11 | 0.192 | 0.191 | 0.216 | 0.135 | 0.0782 | 0.541 | 0.53 | 0.532 | 0.527 | 0.562
NCI-H460 | 1.06 | 0.657 | 0.693 | 0.239 | 0.0295 | 1.51 | 1.05 | 0.977 | 0.823 | 0.248 | 0.527 | 0.377 | 0.56 | 0.388 | 0.352 | 0.574 | 0.482 | 0.398 | 0.205 | 0.0832
NCI-H2023 | 0.779 | 0.642 | 0.329 | 0.539 | 0.225 | 1.08 | 0.902 | 0.763 | 0.549 | 0.218 | 0.616 | 0.336 | 0.575 | 0.332 | 0.354 | 0.481 | 0.394 | 0.282 | 0.272 | 0.139
SK-LU-1 | 1.15 | 0.86 | 1.07 | 0.843 | 0.383 | 1.28 | 1.13 | 0.99 | 1.12 | 1.21 | 0.206 | 0.166 | 0.166 | 0.135 | 0.164 | 0.675 | 0.528 | 0.497 | 0.383 | 0.216
NCI-H1734 | 0.97 | 0.917 | 0.737 | 0.969 | 0.617 | 1.3 | 0.873 | 0.878 | 0.879 | 0.611 | 0.522 | 0.433 | 0.503 | 0.38 | 0.341 | 0.392 | 0.386 | 0.377 | 0.402 | 0.271
PC-3 [JPC-3] | 0.923 | 0.932 | 1.05 | 1.07 | 1.01 | 0.871 | 0.884 | 0.932 | 0.884 | 0.842 | 0.684 | 1.06 | 0.989 | 0.872 | 0.883 | 0.455 | 0.504 | 0.448 | 0.469 | 0.451
HCC-827 | 0.932 | 1.01 | 0.909 | 0.934 | 0.976 | 1.01 | 0.996 | 1.04 | 1.12 | 1.08 | 0.133 | 0.3 | 0.346 | 0.231 | 0.199 | 0.425 | 0.398 | 0.391 | 0.458 | 0.335
NCI-H2405 | 0.881 | 0.943 | 0.724 | 1.09 | 0.693 | 1.1 | 1 | 0.974 | 1.02 | 0.947 |  | 0.192 | 0.214 | 0.189 | 0.218 | 0.37 | 0.373 | 0.36 | 0.453 | 0.432
HOP-62 | 0.838 | 0.911 | 0.933 | 1.23 | 0.873 | 0.726 | 0.389 | 0.889 | 0.838 | 0.718 | 0.698 | 0.588 | 0.739 | 0.557 | 0.342 | 0.671 | 0.611 | 0.77 | 0.696 | 0.667
LCLC-97TM1 | 0.186 | 0.2 | 0.19 | 0.183 | 0.191 | 0.633 | 0.634 | 0.726 | 0.541 | 0.568 | 0.912 | 0.731 | 0.712 | 0.62 | 0.623 | 0.413 | 0.454 | 0.426 | 0.457 | 0.435
NCI-H3122 | 1.06 | 0.955 | 0.989 | 1.05 | 0.967 | 1 | 1.02 | 1.01 | 1.02 | 1 | 0.852 | 0.725 | 0.932 | 0.634 | 0.286 | 0.394 | 0.348 | 0.354 | 0.349 | 0.332
PC-14 | 1.02 | 0.911 | 0.95 | 1.02 | 0.971 | 1.02 | 0.846 | 0.855 | 0.871 | 0.899 |  | 0.334 | 0.349 | 0.155 | 0.0674 | 0.648 | 0.528 | 0.675 | 0.574 | 0.449
HCC-366 | 0.907 | 0.49 | 0.329 | 0.477 | 0.0616 | 1.06 | 1.03 | 1.04 | 0.625 | 0.062 | 0.646 | 0.547 | 0.595 | 0.431 | 0.52 | 0.709 | 0.57 | 0.555 | 0.502 | 0.12
HARA | 1.03 | 1.02 | 0.931 | 0.972 | 0.702 | 1.4 | 1.07 | 1.22 | 1.23 | 1.05 | 0.224 | 0.323 | 0.305 | 0.195 | 0.22 | 0.497 | 0.459 | 0.469 | 0.484 | 0.356
